Assay results as given in patent US20070166547A1, “Use of a layer consisting of hydrophobic linear, or two-dimensional polycyclic aromatics as a barrier layer or an encapsulation and electric components constructed with a layer of this type and comprising organic polymers” (priority 2003, published 2007).
Marks after values point to notes of the source that are not given here.

Tests used:
thymus = assay: Morphine abstinence model: thymus condition; assay type: in vivo, rats; settings: compound alone
[1] = system: adenosine-sensitive receptors of erythrocytes; assay: Chemiluminescence study of bonding to erythrocytes and competition with adenosine; assay type: binding, mice of line BALB/c; settings: 37° C. vs 4° C.; 10^−7 to 10^−5 M
Experimental: The interaction of compounds 2, 15, 21, 37 according to the invention with adenosine-sensitive receptors of erythrocytes of female mice of line BALB/c of an age of 8-12 months was investigated.
The dependence of the chemiluminescence intensity of the compounds according to the invention in an alkaline solution of 0.1N NaOH was determined in the presence of hydrogen peroxide being an initiator of chemiluminescence. The chemiluminescence was studied using the <<LKB>> chemiluminometer.
The erythrocytes of peripheral blood of the mice at first were washed three times by a normal physiological solution with centrifuging and then diluted in the Henks solution without glucose by 10 volumes of distilled water immediately used in the experiment.
At the first stage of the experiments the washed erythrocytes were incubated at a temperature of 37° C. or at 4° C. with solutions of the compounds according to the invention at a concentration of 10^−7 to 10^−5 M for 5-30 minutes, then washed by a normal physiological solution with repeated centrifuging in the cold. The obtained suspension of erythrocytes with the bound compounds according to the invention was placed in 0.1N solution of NaOH with addition of hydrogen peroxide at a final concentration of 10^−7 M. The chemiluminescence intensity was measured. A suspension of erythrocytes without compounds according to the invention was used as a control medium.
At the second stage of the experiments the washed erythrocytes were incubated at a temperature of 37° C. with solutions of the compounds according to the invention at a concentration of 10^−11 to 10^−8M during
5-30 minutes, then washed twice with a normal physiological solution by centrifuging in the cold, the obtained suspension was mixed with an adenosine solution at a concentration of 10^−6 to 10^−4 and incubated for 15 minutes, then washed twice with a normal physiological solution with centrifuging in the cold. The obtained suspension of erythrocytes with the compounds according to the invention was placed in 0.1N solution of NaOH with addition of hydrogen peroxide in the final concentration of 10^−7 M. The chemiluminescence intensity was measured.

plasma hemostasis [2] = assay: Thrombin time after intravenous administration; assay type: in vivo, rabbit
Experimental: (§1) The investigations were performed on 72 rabbits of the “Chinchilla” breed with a mass of 2.5±0.3 kg, who were administered which solutions of compounds 2, 15, 21, 37 in doses of 15, 30 and 60 mg/kg intravenously. The experiments included the thrombin-test (series No. 7300) and the coagulability-test (series No. 5000) purchased from the scientific-and-production association (SPA) “Renam”, thromboplastin (series No. 240600) and calcium chloride purchased from the SPA “MedioLab”
(§2) The static parameters of the blood and plasma coagulation (partial activated thromboplastin time, thrombin time, maximum coagulation activity (test for auto coagulation) were determined using the Behnk Electronic coagulometer (Germany). The operating principle of this instrument is based on the fact that the formed blood clot breaks the contacts of the pulse counter in the flask-pin circuit, said pin permanently oscillating in a vertical plane. The moment of formation of the clot is registered by stopping the stop watch hand.
(§3) The measurements were effected at a constant temperature of 37° C. maintained by a temperature control unit.
The “thrombin time” characterizes the rate of transformation of fibrinogen into fibrin. It was determined by measuring the coagulation time of plasma deprived of thrombocytes under the effect of thrombin standardized by the control plasma.
0.2 ml of a thrombin solution was added to 0.2 ml of the test blood plasma of experimental animals, from whom the blood was taken 15, 30, 60 and 120 minutes after the intravenous administration of compounds 2, 15, 21, 37 according to the invention in doses of 15, 30, 60 mg/kg incubated for 1 minute at a temperature of 37° C. and the time of formation of clot T2 in seconds in a coagulometer of the Behnk Electronic Company (Germany).

plasma hemostasis [3] = assay: Autocoagulation test (coagulating activity A) after intravenous administration; assay type: in vivo, rabbit; settings: for effect on the coagulation activity, autocoagulation test (overall): doses 15.0, 30.0, 60.0 mg/kg
Experimental: as §1, §2, §3
Compounds 2, 15, 21, 37 according to the invention at a concentration of 15, 30 and 60 mg/kg were intravenously administered to the above experimental animals and their blood samples were taken off 15, 30, 60 and 120 minutes after the administration.
Added to 0.2 ml of plasma obtained by centrifuging citrate blood at 1500 rev/min within 10 minutes was a glycosilate-calcium mixture (2.0 ml 0.222% CaCl2+0.1 ml of investigated citrate blood) 4, 6, 8, 10 minutes after the preparation of this mixture and the time of coagulation in the sample was determined.
The obtained results in seconds were translated in factors of coagulating activity A in percent, which specify the state of both the coagulating and anticoagulating parts of the blood coagulating system.

SMILES | bond with the erythrocytes: dependence on incubation temperature [1] | T2, s After 120 minutes (thrombin time) (plasma hemostasis [2]; dose 15.0 mg/kg intravenously) | T2, s after 15 minutes (thrombin time) (plasma hemostasis [2]; dose 15.0 mg/kg intravenously) | T2, s after 30 minutes (thrombin time) (plasma hemostasis [2]; dose 15.0 mg/kg intravenously) | T2, s after 60 minutes (thrombin time) (plasma hemostasis [2]; dose 15.0 mg/kg intravenously) | T2, s After 120 minutes (thrombin time) (plasma hemostasis [2]; dose 30.0 mg/kg intravenously) | T2, s after 15 minutes (thrombin time) (plasma hemostasis [2]; dose 30.0 mg/kg intravenously) | T2, s after 30 minutes (thrombin time) (plasma hemostasis [2]; dose 30.0 mg/kg intravenously) | T2, s after 60 minutes (thrombin time) (plasma hemostasis [2]; dose 30.0 mg/kg intravenously) | T2, s After 120 minutes (thrombin time) (plasma hemostasis [2]; dose 60.0 mg/kg intravenously) | T2, s after 15 minutes (thrombin time) (plasma hemostasis [2]; dose 60.0 mg/kg intravenously) | T2, s after 30 minutes (thrombin time) (plasma hemostasis [2]; dose 60.0 mg/kg intravenously) | T2, s after 60 minutes (thrombin time) (plasma hemostasis [2]; dose 60.0 mg/kg intravenously) | A, % after 15 minutes (coagulating activity) (plasma hemostasis [3]; dose 15.0 mg/kg intravenously) [%] | A, % after 30 minutes (coagulating activity) (plasma hemostasis [3]; dose 15.0 mg/kg intravenously) [%] | A, % after 60 minutes (coagulating activity) (plasma hemostasis [3]; dose 15.0 mg/kg intravenously) [%] | A, % after 120 minutes (coagulating activity) (plasma hemostasis [3]; dose 15.0 mg/kg intravenously) [%] | A, % after 15 minutes (coagulating activity) (plasma hemostasis [3]; dose 30.0 mg/kg intravenously) [%] | A, % after 30 minutes (coagulating activity) (plasma hemostasis [3]; dose 30.0 mg/kg intravenously) [%] | A, % after 60 minutes (coagulating activity) (plasma hemostasis [3]; dose 30.0 mg/kg intravenously) [%] | further results
O=c1[nH][nH]c(=O)c2nccnc12.[Li] [Compound 25, lithium salt of pyrazine[2,3-d]-6H-pyridazine-5,8-dione] | – | – | – | – | – | – | – | – | – | – | – | – | – | – | – | – | – | – | – | – | Nitrites, thymus Supernatant, Administration of compounds (thymus): 0.417 ± 0.02 nmol/mg of protein; Thymus mass, Administration of compounds (thymus): 254 ± 14 mg
Nc1cccc2c(=O)[nH][nH]c(=O)c12.[Na] [Compound 15, sodium salt of 5-amino-benzo[d]-3H-pyridazine-1,4-dione] | does not depend on the temperature | 15.5* s | 17.0* s | 18.5* s | 16.5* s | 15.0* s | 19.7* s | 20.5* s | 21.3* s | 14.7* s | 16.8* s | 18.0* s | 16.5* s | 82.3 | 103.0 | 89.0 | 101.2 | 100.3 | 68.4 | 106.6 | Nitrites, thymus Supernatant, Administration of compounds (thymus): 0.407 ± 0.02 nmol/mg of protein; Thymus mass, Administration of compounds (thymus): 298 ± 25 mg; A, % after 120 minutes (coagulating activity) (plasma hemostasis [3]; dose 30.0 mg/kg intravenously): 70.6%; A, % after 15 minutes (coagulating activity) (plasma hemostasis [3]; dose 60.0 mg/kg intravenously): 74.4%; A, % after 30 minutes (coagulating activity) (plasma hemostasis [3]; dose 60.0 mg/kg intravenously): 63.2%; A, % after 60 minutes (coagulating activity) (plasma hemostasis [3]; dose 60.0 mg/kg intravenously): 64.4%; A, % after 120 minutes (coagulating activity) (plasma hemostasis [3]; dose 60.0 mg/kg intravenously): 66.5%; effect on the coagulation activity, autocoagulation test (overall) (plasma hemostasis [3]): have no effect on the coagulation activity
Nc1ccnc2c(=O)n([C@@H]3O[C@H](CO)[C@@H](O)[C@H]3O)[nH]c(=O)c12 [Compound 2, 4-amino-7-(β-D-ribofuranosile)pyrido[2,3-d]-6H-pyridazine-5,8-dione] | does not depend on the temperature | 15.3* s | 16.2* s | 17.0* s | 16.0* s | 15.3* s | 17.8* s | 18.4* s | 19.2* s | 15.3* s | 16.0* s | 16.9* s | 15.9* s | 80.2 | 100.0 | 87.4 | 98.0 | 98.4 | 71.2 | 104.2 | A, % after 120 minutes (coagulating activity) (plasma hemostasis [3]; dose 30.0 mg/kg intravenously): 70.9%; A, % after 15 minutes (coagulating activity) (plasma hemostasis [3]; dose 60.0 mg/kg intravenously): 72.3%; A, % after 30 minutes (coagulating activity) (plasma hemostasis [3]; dose 60.0 mg/kg intravenously): 60.8%; A, % after 60 minutes (coagulating activity) (plasma hemostasis [3]; dose 60.0 mg/kg intravenously): 62.5%; A, % after 120 minutes (coagulating activity) (plasma hemostasis [3]; dose 60.0 mg/kg intravenously): 65.7%; effect on the coagulation activity, autocoagulation test (overall) (plasma hemostasis [3]): have no effect on the coagulation activity
O=c1[nH][nH]c(=O)c2c(Br)ncnc12.[K] [Compound 37, potassium salt of 4-bromine-pyrimido[4,5-D]-6H-pyridazine-5,8-dione] | does not depend on the temperature | 15.6* s | 16.9* s | 18.2* s | 16.3* s | 15.2* s | 19.5* s | 20.3* s | 21.0* s | 15.0* s | 16.6* s | 17.8* s | 16.2* s | 82.1 | 102.8 | 88.7 | 100.6 | 99.8 | 68.3 | 105.8 | Nitrites, thymus Supernatant, Administration of compounds (thymus): 0.410 ± 0.01 nmol/mg of protein; Thymus mass, Administration of compounds (thymus): 263 ± 21 mg; A, % after 120 minutes (coagulating activity) (plasma hemostasis [3]; dose 30.0 mg/kg intravenously): 70.4%; A, % after 15 minutes (coagulating activity) (plasma hemostasis [3]; dose 60.0 mg/kg intravenously): 74.3%; A, % after 30 minutes (coagulating activity) (plasma hemostasis [3]; dose 60.0 mg/kg intravenously): 63.0%; A, % after 60 minutes (coagulating activity) (plasma hemostasis [3]; dose 60.0 mg/kg intravenously): 64.2%; A, % after 120 minutes (coagulating activity) (plasma hemostasis [3]; dose 60.0 mg/kg intravenously): 66.3%; effect on the coagulation activity, autocoagulation test (overall) (plasma hemostasis [3]): have no effect on the coagulation activity
Nc1cnc2c(=O)n([C@@H]3O[C@H](CO)[C@@H](O)[C@H]3O)[nH]c(=O)c2n1.[Na] [Compound 21, sodium salt of 3-amino-7-(β-D-ribofuranosile)pyrazine[2,3-d]-6H-pyridazine-5,8-dione] | does not depend on the temperature | 15.7* s | 16.4* s | 17.7* s | 16.1* s | 15.6* s | 17.9* s | 18.8* s | 19.0* s | 15.7* s | 16.2* s | 17.7* s | 16.3* s | 81.4 | 101.3 | 86.5 | 97.4 | 97.2 | 69.1 | 103.7 | A, % after 120 minutes (coagulating activity) (plasma hemostasis [3]; dose 30.0 mg/kg intravenously): 71.0%; A, % after 15 minutes (coagulating activity) (plasma hemostasis [3]; dose 60.0 mg/kg intravenously): 71.9%; A, % after 30 minutes (coagulating activity) (plasma hemostasis [3]; dose 60.0 mg/kg intravenously): 62.1%; A, % after 60 minutes (coagulating activity) (plasma hemostasis [3]; dose 60.0 mg/kg intravenously): 63.7%; A, % after 120 minutes (coagulating activity) (plasma hemostasis [3]; dose 60.0 mg/kg intravenously): 66.2%; effect on the coagulation activity, autocoagulation test (overall) (plasma hemostasis [3]): have no effect on the coagulation activity
